US9408393B2, “Bismuth-thiols as antiseptics for agricultural, industrial and other uses” (Microbion Corporation, priority 2010, dated 2016)
Read-outs that look alike come from different tables or passages of the source.

Experiments:
[1] = tested on: S. epidermidis S2400-1 biofilm; assay: Biofilm prevention, BisEDT-antibiotic combinations; type: cell-based, Staphylococcus epidermidis; conditions: for Δ (0.05 BE), biofilm prevention: 0.05 μg/ml BisEDT
Procedure: (§1) S. epidermidis grown in TSB+2% glucose in polystyrene plates for 48 h at 37° C. Gatifloxacin (GF), clindamycin (CM), minocycline (MC), gentamicin (GM), vancomycin (VM), cefazolin (CZ), nafcillin (NC), and rifampicin (RP). […]

S. epidermidis = assay: Broth dilution MIC/MBC, BT-antibiotic combinations; type: cell-based, Staphylococcus epidermidis; conditions: for Δ, MIC / Δ (0.05 BE), MIC: 0.05 μg/ml BisEDT; for Δ (0.1 BE), MBC: 0.1 μg/ml BisEDT
Procedure: Materials & Methods. Susceptibility studies were performed by broth dilution in 96-well tissue culture plates (Nalge Nunc International, Denmark) in accordance with NCCLS protocols (National Committee for Clinical Laboratory Standards. (1997). Methods for Dilution Antimicrobial Susceptibility Tests for Bacteria that Grow Aerobically: Approved Standard M7-A2 and Informational Supplement M100-S10. NCCLS, Wayne, Pa., USA).
Briefly, overnight bacterial cultures were used to prepare 0.5 McFarland standard suspensions, which were further diluted 1:50 (˜2×10^6 cfu/mL) in cation-adjusted Mueller-Hinton broth medium (BBL, Cockeysville, Md., USA). BTs (prepared as described above) and antibiotics were added at incremental concentrations, keeping the final volume constant at 0.2 mL. Cultures were incubated for 24 h at 37° C. and turbidity was assessed by absorption at 630 nm using an ELISA plate reader (Biotek Instruments, Winooski, Vt., USA) according to the manufacturer's recommendations. […] Viable bacterial counts (cfu/mL) were determined by standard plating on nutrient agar.
The checkerboard method was used to assess the activity of antimicrobial combinations. The fractional inhibitory concentration index (FICI) and the fractional bactericidal concentration index (FBCI) were calculated, according to Eliopoulos et al. (Eliopoulos and Moellering, (1996) Antimicrobial combinations. In Antibiotics in Laboratory Medicine (Lorian, V., Ed.), pp. 330-96, Williams and Wilkins, Baltimore, Md., USA). Synergy was defined as an FICI or FBCI index of […], no interaction at >0.5-4 and antagonism at >4 (Odds, F C (2003) Synergy, antagonism, and what the chequerboard puts between them. Journal of Antimicrobial Chemotherapy 52:1). Synergy was also defined conventionally as ≧4-fold decrease in antibiotic concentration.

S. epidermidis biofilm = assay: Biofilm prevention concentration (BPC), BisEDT and antibiotics; type: cell-based, Staphylococcus epidermidis; conditions: for Fold reduction of BPC in presence of subMIC BisEDT: TSB + 2% glucose, 48 h
Procedure: as §1

MRSA clinical isolates [2] = conditions: cited from earlier work; for MIC Standards, R (resistance): Standard MIC breakpoint for resistance; for MIC Standards, S (antibiotic sensitivity): Standard MIC breakpoint for sensitivity
MRSA clinical isolates [3] = assay: Broth dilution MIC in BHIG/X medium with subMIC BisEDT; type: cell-based, Staphylococcus aureus; conditions: Staphylococcus aureus, MRSA, 12 MRSA clinical isolates, BHIG/X, mean ± SD
Procedure: (§2) Broth dilution antimicrobial susceptibility studies were performed against 12 MRSA strains using several antibiotics combined with subMIC levels of BisEDT (Table 18). Both the biofilm-prevention concentration (BPC) and the minimum inhibitory concentration (MIC) were determined in a special biofilm culture medium (BHIG/X). […] These strains were already sensitive to vancomycin, but were made considerably moreso in the presence of subMIC BisEDT.
In this particular study, the data indicated synergy between BisEDT and cefepime (FIC<0.5), with many of the isolates at the breakpoint for sensitivity.

[4] = tested on: MRSA clinical isolates biofilm; assay: Biofilm-prevention concentration (BPC) in BHIG/X medium with subMIC BisEDT; type: cell-based, Staphylococcus aureus; conditions: 12 MRSA clinical isolates, mean ± SD
Procedure: as §2

Pseudomonas aeruginosa = assay: Single-point BisEDT-antibiotic combination FICI; type: cell-based; conditions: PA 1380
Burkholderia cepacia = assay: Single-point BisEDT-antibiotic combination FICI; type: cell-based; conditions: Bcep 1756
Bukholderia multivorans = assay: Single-point BisEDT-antibiotic combination FICI; type: cell-based; conditions: Bmult 5665
Acinetobacter baumanii = assay: Single-point BisEDT-antibiotic combination FICI; type: cell-based; conditions: Abau 2594
Klebsiella pneumoniae = assay: Single-point BisEDT-antibiotic combination FICI; type: cell-based; conditions: KP 1231
[5] = tested on: Staphylococcus aureus (SA, MRSA); assay: Single-point BisEDT-antibiotic combination FICI; type: cell-based
[6] = tested on: Streptococcus pneumoniae (SP, PRSP); assay: Single-point BisEDT-antibiotic combination FICI; conditions: PRSP 5348
Enterococcus faecalis = assay: Single-point BisEDT-antibiotic combination FICI; type: cell-based; conditions: E Fc 3121
Escherichia coli = assay: Single-point BisEDT-antibiotic combination FICI; type: cell-based
[7] = tested on: lawn of MRSA (Methicillin-resistant S. aureus); assay: Antibiotic-soaked discs on bacterial lawn with and without BisEDT; type: cell-based, Staphylococcus aureus; conditions: antibiotic discs combined with BisEDT 0.05 μg/ml
Procedure: FIGS. 4A and 4B show the subinhibitory BisEDT reversing antibiotic-resistance to several antibiotics. Effects of antibiotics with and without BisEDT (0.05 μg/ml) on a lawn of MRSA (Methicillin-resistant S. aureus) is shown. […] [GM=gentamicin, CZ=cefazolin, FEP=cefepime, IPM=imipenim, SAM=ampicillin/sulbactam, LVX=levofloxacin.

[8] = S. epidermidis ATCC 35984, BisEDT 0.0 μg/ml
[9] = S. epidermidis ATCC 35984, BisEDT 0.05 μg/ml
[10] = S. epidermidis S2400-1, BisEDT 0 μg/ml
[11] = S. epidermidis S2400-1, BisEDT 0.0 μg/ml
[12] = S. epidermidis S2400-1, BisEDT 0.05 μg/ml
[13] = S. epidermidis S2400-1, BisEDT 0.1 μg/ml

Structure (SMILES) | Δ (0.05 BE), biofilm prevention [1] | Biofilm Prevention (antibiotic concentration) ([1]; BisEDT 0 μg/ml) | Biofilm Prevention (antibiotic concentration) ([1]; BisEDT 0.05 μg/ml) | Biofilm Prevention (antibiotic concentration) ([1]; BisEDT 0.1 μg/ml) | Δ, MIC (S. epidermidis; S. epidermidis ATCC 35984) | MIC (S. epidermidis; [8]) | MIC (S. epidermidis; [9]) | Δ (0.05 BE), MIC (S. epidermidis; S. epidermidis S2400-1) | Δ (0.1 BE), MBC (S. epidermidis; S. epidermidis S2400-1) | MIC (S. epidermidis; [10]) | MBC (S. epidermidis; [11]) | MIC (S. epidermidis; [12]) | MBC (S. epidermidis; [13]) | MIC (S. epidermidis; [13]) | Fold reduction of BPC in presence of subMIC BisEDT (S. epidermidis biofilm) | MIC Standards, R (resistance) (MRSA clinical isolates [2]) | MIC Standards, S (antibiotic sensitivity) (MRSA clinical isolates [2]) | BPC ([4]; BisEDT 0 μg/mL) | BPC ([4]; BisEDT 0.025 μg/mL) | BPC ([4]; BisEDT 0.05 μg/mL) | also measured
CCC[C@@H]1C[C@@H](C(=O)N[C@@H]([C@H]2O[C@H](SC)[C@H](O)[C@@H](O)[C@H]2O)[C@H](C)Cl)N(C)C1 [Clindamycin, clindamycin] | 24.9 | 1195 µg/mL | 48 µg/mL | 12 µg/mL | 2 | 2048.00 µg/mL | 1024.00 µg/mL | 2.67 | 2.67 | 2048 µg/mL | 2048 µg/mL | 768 µg/mL | 768 µg/mL | 24 µg/mL | 50 fold |  |  |  |  |  | 
COc1c(N2CCNC(C)C2)c(F)cc2c(=O)c(C(=O)O)cn(C3CC3)c12 (centres unmarked) [Gatifloxacin, gatifloxacin] | 16.0 | 1.6 µg/mL | 0.1 µg/mL | 0.1 µg/mL |  |  |  | 2.13 | 2.00 | 1.7 µg/mL | 2.8 µg/mL | 0.8 µg/mL | 1.4 µg/mL | 0.3 µg/mL | 10 fold | ≧8 μg/ml | ≦2 μg/ml | 3.6 ± 2.6 µg/mL | 2.6 ± 0.9 µg/mL | 2.4 ± 1.1 µg/mL | MIC (MRSA clinical isolates [3]; BisEDT 0 μg/mL, read-out: MIC): 3.6 ± 2.6 µg/mL; MIC (MRSA clinical isolates [3]; BisEDT 0.025 μg/mL, read-out: MIC): 4 ± 2.8 µg/mL; MIC (MRSA clinical isolates [3]; BisEDT 0.05 μg/mL, read-out: MIC): 4 ± 2.8 µg/mL; MIC (MRSA clinical isolates [3]; BisEDT 0.1 μg/mL, read-out: MIC): 2.4 ± 1.1 µg/mL; BPC ([4]; BisEDT 0.1 μg/mL): 0.9 ± 0.8 µg/mL
CN(C)c1ccc(O)c2c1C[C@H]1C[C@H]3[C@H](N(C)C)C(O)=C(C(N)=O)C(=O)[C@@]3(O)C(O)=C1C2=O [Minocycline, minocycline] | 1.2 | 0.85 µg/mL | 0.73 µg/mL | 0.08 µg/mL | 3.3 | 0.13 µg/mL | 0.04 µg/mL | 2.63 | 1.00 | 1.13 µg/mL | 1.20 µg/mL | 0.43 µg/mL | 1.20 µg/mL | 0.10 µg/mL |  |  |  |  |  |  | FICI, single-point BisEDT-antibiotic combination (Pseudomonas aeruginosa): 0.99; FICI, single-point BisEDT-antibiotic combination (Burkholderia cepacia): 2.23; FICI, single-point BisEDT-antibiotic combination (Bukholderia multivorans): 1.12; FICI, single-point BisEDT-antibiotic combination (Acinetobacter baumanii): 1.29; FICI, single-point BisEDT-antibiotic combination (Klebsiella pneumoniae): 1.29; FICI, single-point BisEDT-antibiotic combination ([5]; MRSA 773): 1.23; FICI, single-point BisEDT-antibiotic combination ([5]; SA 100): 1.09; FICI, single-point BisEDT-antibiotic combination [6]: 0.46; FICI, single-point BisEDT-antibiotic combination (Enterococcus faecalis): 1.11; FICI, single-point BisEDT-antibiotic combination (Escherichia coli; EC 102): 1.37; FICI, single-point BisEDT-antibiotic combination (Escherichia coli; EC 2232): 1.04
CN[C@H](CC(C)C)C(=O)N[C@H]1C(=O)N[C@@H](CC(N)=O)C(=O)N[C@H]2C(=O)N[C@H]3C(=O)N[C@H](C(=O)N[C@H](C(=O)O)c4cc(O)cc(O)c4-c4cc3ccc4O)[C@H](O)c3ccc(c(Cl)c3)Oc3cc2cc(c3O[C@@H]2O[C@H](CO)[C@@H](O)[C@H](O)[C@H]2O[C@H]2C[C@](C)(N)[C@H](O)[C@H](C)O2)Oc2ccc(cc2Cl)[C@H]1O [Vancomycin, vancomycin] | 3.6 | 3.2 µg/mL | 0.9 µg/mL | 0.1 µg/mL |  |  |  | 1.40 | 3.86 | 3.2 µg/mL | 5.4 µg/mL | 2.3 µg/mL | 1.4 µg/mL | 0.3 µg/mL |  | ≧32 μg/ml | ≦4 μg/ml | 2.5 ± 1.7 µg/mL | 1.5 ± 0.6 µg/mL | 1.3 ± 0.5 µg/mL | Synergy, MBC (S. epidermidis; S. epidermidis S2400-1): borderline; Change of biofilm prevention concentration (BPC) (S. epidermidis biofilm; 0.05 μg/ml BisEDT): modest decreases; MIC (MRSA clinical isolates [3]; BisEDT 0 μg/mL): 2.5 ± 1.7 µg/mL; MIC (MRSA clinical isolates [3]; BisEDT 0.025 μg/mL): 2.5 ± 1.7 µg/mL; MIC (MRSA clinical isolates [3]; BisEDT 0.05 μg/mL): 1.5 ± 0.6 µg/mL; MIC (MRSA clinical isolates [3]; BisEDT 0.1 μg/mL): 1.3 ± 0.5 µg/mL; BPC ([4]; BisEDT 0.1 μg/mL): 0.7 ± 0.4 µg/mL
Cc1cc(NS(=O)(=O)c2ccc(N)cc2)no1 [sulphamethoxazole] |  |  |  |  |  |  |  |  |  |  |  |  |  |  |  |  |  |  |  |  | Antibiotic action on MRSA lawn with subMIC BisEDT [7]: enhanced antibiotic action
